By IC50 is commonly meant the concentration needed to halve the response being measured. In general, bioavailability refers to dose-corrected exposure relative to a reference, in per cent. Lower therefore signals little systemic uptake. As usually defined, the half-life is the time needed for the level to fall by half in the phase considered. Lower therefore signals fast loss. The term clearance denotes the volume of plasma or blood freed of the substance per unit of time. Read a high clearance as efficient removal.

We go through 39 compounds from ChEMBL document CHEMBL1146130, “Benzoxazole benzenesulfonamides as allosteric inhibitors of fructose-1,6-bisphosphatase” (Bioorg Med Chem Lett, 2006).

For data set [1], the target named is T1, Fructose-1,6-bisphosphatase 1 (Homo sapiens, UniProt P09467).
T1 sequence (P09467 whole entry): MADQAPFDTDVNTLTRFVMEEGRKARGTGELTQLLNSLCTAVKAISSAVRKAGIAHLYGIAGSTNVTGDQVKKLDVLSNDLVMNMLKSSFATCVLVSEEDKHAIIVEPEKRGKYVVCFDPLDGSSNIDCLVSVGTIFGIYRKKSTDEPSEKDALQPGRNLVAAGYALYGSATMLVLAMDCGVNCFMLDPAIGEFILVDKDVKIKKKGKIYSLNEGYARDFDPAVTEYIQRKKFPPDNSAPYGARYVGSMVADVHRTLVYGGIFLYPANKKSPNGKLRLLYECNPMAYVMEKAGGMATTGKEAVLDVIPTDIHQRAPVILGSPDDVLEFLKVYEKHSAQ
Nature of the data set: Inhibition of human FBPase1.

Data set [2] is described as follows: Oral bioavailability in rat at 5 mg/kg, po. The data set is classed as ADME, organism-based. Conditions: in vivo.
Data set [3] is described as follows: Half life in rat at 5 mg/kg, po. Set-up: dose 5 mg/kg, route oral. Conditions: in vivo. It is filed as ADME, organism-based.
Data set [4] can be described thus: Plasma clearance in rat at 5 mg/kg. The data set is classed as ADME, organism-based. Set-up: dose 5 mg/kg.

A value given as a limit tells only on which side of the number the result lay.

For the compound `O=S(=O)(Nc1nc2cc(Br)ccc2o1)c1cc(Cl)ccc1Cl`, the concentration for half-maximal inhibition (IC50) in data set [1] is 1.9 µM.

Turning to `O=S(=O)(Nc1nc2cc(Cl)ccc2o1)c1ccccc1-c1ccccc1`, in data set [1], the IC50 was 3.8 µM.

In data set [1], `O=S(=O)(Nc1nc2cc(Cl)ccc2o1)c1ccc(-c2ccccc2)cc1` gave a 50% inhibitory concentration (IC50) of 4 µM. This IC50 and that of the compound before are within 1.5-fold of each other.

The compound `O=S(=O)(Nc1nc2cc(Cl)ccc2o1)c1cccc(-c2ccccc2)c1` had an IC50 in data set [1] of 9.8 µM.

Consider `O=S(=O)(Nc1nc2c(I)cccc2o1)c1cc(Cl)ccc1Cl`, for which the IC50 in data set [1] was above 50 µM.

Consider `Cc1ccc(S(=O)(=O)Nc2nc3cc(Cl)ccc3o2)cc1`, for which, in data set [1], the IC50 amounted to 6.2 µM.

`Cc1cccc2oc(NS(=O)(=O)c3cc(Cl)ccc3Cl)nc12` gave a 50% inhibitory concentration (IC50) in data set [1] of 55 µM.

In data set [1], `O=S(=O)(Nc1nc2c(C3=CCNC=C3)cccc2o1)c1cc(Cl)ccc1Cl` displayed an IC50 above 50 µM.

As to `COc1cc(-c2cccc(O)c2)c2oc(NS(=O)(=O)c3cc(Cl)ccc3Cl)nc2c1`, in data set [1], the half-inhibitory concentration (IC50) turned out to be 1.7 µM.

Regarding `O=S(=O)(Nc1nc2cc(Cl)ccc2o1)c1ccc(OC(F)(F)F)cc1`, the IC50 in data set [1] came to 7.8 µM.

Regarding `Cc1ccc2oc(NS(=O)(=O)c3cc(Cl)ccc3Cl)nc2c1`, in data set [1], it took 6.4 µM to reach half-maximal inhibition (IC50).

`O=S(=O)(Nc1nc2ccc(Cl)cc2o1)c1cc(Cl)ccc1Cl`: the IC50 in data set [1] was found to be 8.1 µM.

As to `CCCCS(=O)(=O)Nc1nc2cc(Cl)ccc2o1`, the IC50 in data set [1] is above 50 µM.

As for `CS(=O)(=O)Nc1nc2cc(Cl)ccc2o1`, in data set [1], the IC50 is above 50 µM.

Turning to `CCCC(=O)Nc1ccc(S(=O)(=O)Nc2nc3cc(Cl)ccc3o2)cc1`, the IC50 in data set [1] is 12 µM.

Take `Cc1ccc2nc(NS(=O)(=O)c3cc(Cl)ccc3Cl)oc2c1`: the IC50 in data set [1] was found to be 10 µM.

In data set [1], `COc1cc(-c2ccc(N)cc2)c2oc(NS(=O)(=O)c3cc(Cl)ccc3Cl)nc2c1` had an IC50 of 1.3 µM.

Turning to `O=S(=O)(Nc1nc2cc(Cl)ccc2o1)c1ccc2cc3ccccc3cc2c1`, the IC50 in data set [1] stood at 3.4 µM. This IC50 lies about 2.6-fold higher than the previous one.

Turning to `COc1ccc2nc(NS(=O)(=O)c3cc(Cl)ccc3Cl)oc2c1`, in data set [1], the midpoint of inhibition, the IC50, lay at 8 µM.

The compound `O=S(=O)(Nc1nc2cc(Cl)ccc2o1)c1cc(Cl)ccc1Cl` had an IC50 in data set [1] of 3.4 µM.

For `O=S(=O)(Nc1nc2cc(Cl)ccc2o1)c1ccccc1`, the IC50 in data set [1] was 7.7 µM.

`O=S(=O)(Nc1nc2cc(Cl)ccc2o1)c1ccccc1-n1ccnc1` returned an IC50 in data set [1] of 23 µM.

As to `O=[N+]([O-])c1cccc(S(=O)(=O)Nc2nc3cc(Cl)ccc3o2)c1`, half-maximal inhibition in data set [1] (IC50) required 1.8 µM.

As for `O=S(=O)(Nc1nc2cc(-c3ccoc3)ccc2o1)c1cc(Cl)ccc1Cl`, the IC50 in data set [1] was 4 µM.

Compound `O=S(=O)(Nc1nc2cc(Cl)ccc2o1)c1cccc(Cl)c1` registered an IC50 in data set [1] of 1.3 µM.

In data set [1], `COc1cc(-c2ccc(O)cc2)c2oc(NS(=O)(=O)c3cc(Cl)ccc3Cl)nc2c1` gave an IC50 of 1.8 µM.

The compound `O=S(=O)(Nc1nc2cc(Cl)ccc2o1)c1cccs1` showed an IC50 in data set [1] of 13 µM. This IC50 is about 7.2-fold higher than that of the compound before.

Compound `O=S(=O)(Nc1nc2cc(Cl)ccc2o1)c1c(Cl)cccc1Cl` yielded a half-inhibitory concentration (IC50) in data set [1] above 50 µM.

Consider `O=S(=O)(Nc1nc2cc(Cl)ccc2o1)c1ccc(-c2ccoc2)cc1`, for which 6.7 µM corresponded to half-maximal inhibition in data set [1] (IC50).

On to `O=S(=O)(Nc1nc2cc(Cl)ccc2o1)c1ccccc1Br`, for which the midpoint of inhibition in data set [1], the IC50, lay at 6.5 µM.

`O=S(=O)(Nc1nc2cc(Cl)ccc2o1)c1ccc(F)cc1` came in with an IC50 in data set [1] of 2.8 µM.

As to `O=S(=O)(Nc1nc2cc(Cl)ccc2o1)c1ccc2ccccc2c1`, in data set [1], the IC50 came to 2.5 µM. This compound displayed a bioavailability in data set [2] above 100%. The same compound had a half-life in data set [3] of 7.5 h. In data set [4], the clearance is 0.667 mL/min/kg.

For `CC(C)(C)c1ccc2oc(NS(=O)(=O)c3cc(Cl)ccc3Cl)nc2c1`, in data set [1], the IC50 is 32 µM.

In turn, `Cn1cnc(S(=O)(=O)Nc2nc3cc(Cl)ccc3o2)c1` showed an IC50 in data set [1] of 9.4 µM.

In turn, `N#Cc1ccccc1S(=O)(=O)Nc1nc2cc(Cl)ccc2o1` registered an IC50 in data set [1] of 6 µM. Against the preceding compound, the IC50 is about 1.6-fold lower.

In data set [1], `COc1cc(-c2cccc(CN)c2)c2oc(NS(=O)(=O)c3cc(Cl)ccc3Cl)nc2c1` showed an IC50 of 2.6 µM. Compared with the last compound, the IC50 is about 2.3-fold lower.

`CC(C)(C)c1ccc(COc2cccc(S(=O)(=O)Nc3nc4cc(Cl)ccc4o3)c2)cc1` showed an IC50 in data set [1] above 50 µM.

As to `CC(C)(C)c1ccc(S(=O)(=O)Nc2nc3cc(Cl)ccc3o2)cc1`, the IC50 in data set [1] worked out at 24 µM.

The compound `Cc1cccc(Cl)c1S(=O)(=O)Nc1nc2cc(Cl)ccc2o1` came in with an IC50 in data set [1] above 50 µM.
